Experimental data taken from US8993574B2, “Pyrrole antifungal agents” (F2G Ltd, priority 2008, dated 2015).
In brackets after ≈: the same amount, converted by molar mass.

Key:
Format in all cases: cell-based
[1] = system: Aspergillus terreus AT49; experiment: MIC, YAG medium; settings: Aspergillus terreus, 24 h at 35° C, MIC banded into grades, read-out: MIC grade, A. terreus 49
Outline: (§1)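 Endpoint is growth at OD 485 nm after 24 h at 35° C, with MIC defined as the lowest drug level giving >70% inhibition relative to untreated wells and recorded in mg/L. Tests ran in YAG broth with 1−2×10^4 cfu/mL spore inocula from Sabouraud-grown cultures. Drug ranges were 50-0.05 mg/L, repeated at 0.5-0.0005 mg/L when needed.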

[2] = system: Aspergillus flavus; experiment: MIC, YAG medium; settings: 24 h at 35° C, MIC banded into grades; for MIC: Aspergillus flavus, 24 h, read-out: MIC grade, A. flavus
Outline: as §1

[3] = system: Aspergillus terreus AT4; experiment: MIC, YAG medium; settings: Aspergillus terreus, 24 h at 35° C, MIC banded into grades, read-out: MIC grade, A. terreus
Outline: as §1

[4] = system: Aspergillus fumigatus AF293; experiment: MIC, YAG medium; settings: Aspergillus fumigatus, 24 h at 35° C, MIC banded into grades, read-out: MIC grade, A. fumigatus
Outline: as §1

[5] = system: Aspergillus fumigatus AF210; experiment: MIC, YAG medium; settings: Aspergillus fumigatus, 24 h at 35° C, MIC banded into grades, read-out: MIC grade, A. fumigatus 210
Outline: as §1

[6] = system: Aspergillus niger; experiment: MIC, YAG medium; settings: Aspergillus niger, 24 h at 35° C, MIC banded into grades, read-out: MIC grade, A. niger
Outline: as §1

[7] = system: Aspergillus terreus AT49; experiment: MIC, RPMI medium; settings: Aspergillus terreus, AT49, MIC banded into grades, read-out: MIC grade, A. terreus 49
Outline: (§2)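 Minimum inhibitory concentrations were determined in glucose-supplemented (2%) RPMI buffered to pH 7.0 with 0.135 M MOPS. Wells held 1−2×10^4 cfu/mL and compound from 50 to 0.05 mg/L, incubated 24-48 h at 35° C, with >80% growth reduction by OD 485 nm as endpoint.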

[8] = system: Aspergillus flavus; experiment: MIC, RPMI medium; settings: Aspergillus flavus, MIC banded into grades, read-out: MIC grade, A. flavus
Outline: as §2

[9] = system: Aspergillus terreus AT4; experiment: MIC, RPMI medium; settings: Aspergillus terreus, AT4, MIC banded into grades, read-out: MIC grade, A. terreus
Outline: as §2

[10] = system: Aspergillus fumigatus AF293; experiment: MIC, RPMI medium; settings: Aspergillus fumigatus, AF293, MIC banded into grades, read-out: MIC grade, A. fumigatus
Outline: as §2

[11] = system: Aspergillus fumigatus AF210; experiment: MIC, RPMI medium; settings: Aspergillus fumigatus, AF210, MIC banded into grades, read-out: MIC grade, A. fumigatus 210
Outline: as §2

[12] = system: Aspergillus niger; experiment: MIC, RPMI medium; settings: Aspergillus niger, MIC banded into grades, read-out: MIC grade, A. niger
Outline: as §2

SMILES | MIC [1] [µg/mL] | MIC [2] [µg/mL] | MIC [3] [µg/mL] | MIC [4] [µg/mL] | MIC [5] [µg/mL] | MIC [6] [µg/mL] | MIC [7] [µg/mL] | MIC [8] [µg/mL] | MIC [9] [µg/mL] | MIC [10] [µg/mL] | MIC [11] [µg/mL] | MIC [12] [µg/mL] | MIC grade, A. flavus [2]
CCc1cc(-c2ccccc2)c(C(=O)C(=O)Nc2ccc(N3CCN(c4cc(C)cc(C)n4)CC3)cc2)n1CCOC [Example 54, N-{4-[4-(4,6-Dimethyl-pyridin-2-yl)-piperazin-1-yl]-phenyl}-2-[5-ethyl-1-(2-methoxy-ethyl)-3-phenyl-1H-pyrrol-2-yl]-2-oxo-acetamide] | < 1 | 1 to 10 (≈ 1.77 to 17.7 µM) | 1 to 10 (≈ 1.77 to 17.7 µM) | < 1 | < 1 | 1 to 10 (≈ 1.77 to 17.7 µM) | > 10 | > 10 | > 10 | < 1 | 1 to 10 (≈ 1.77 to 17.7 µM) | 1 to 10 (≈ 1.77 to 17.7 µM) | 
COCCn1c(C)cc(-c2ccccc2)c1C(=O)C(=O)Nc1ccc(N2CCN(CC(C)C)CC2)cc1F [Example 110, N-[2-Fluoro-4-(4-isobutyl-piperazin-1-yl)-phenyl]-2-[1-(2-methoxy-ethyl)-5-methyl-3-phenyl-1H-pyrrol-2-yl]-2-oxo-acetamide] | 1 to 10 (≈ 1.92 to 19.2 µM) | 1 to 10 (≈ 1.92 to 19.2 µM) | < 1 | < 1 | < 1 | < 1 | < 1 | 1 to 10 (≈ 1.92 to 19.2 µM) | < 1 | < 1 | < 1 | 1 to 10 (≈ 1.92 to 19.2 µM) | 
COCCc1cc(-c2ccccc2)c(C(=O)C(=O)Nc2ccc(N3CCN(c4cc(C)cc(C)n4)CC3)cc2)n1C [Example 129, N-{4-[4-(4,6-Dimethyl-pyridin-2-yl)-piperazin-1-yl]-phenyl}-2-[5-(2-methoxy-ethyl)-1-methyl-3-phenyl-1H-pyrrol-2-yl]-2-oxo-acetamide] | < 1 | < 1 | < 1 | < 1 | < 1 | < 1 | 1 to 10 (≈ 1.81 to 18.1 µM) | < 1 | 1 to 10 (≈ 1.81 to 18.1 µM) | < 1 | 1 to 10 (≈ 1.81 to 18.1 µM) | 1 to 10 (≈ 1.81 to 18.1 µM) | 
COCC=CCn1c(C)cc(-c2ccccc2)c1C(=O)C(=O)Nc1ccc(N2CCN(c3cc(C)cc(C)n3)CC2)cc1 [Example 141, N-{4-[4-(4,6-Dimethyl-pyridin-2-yl)-piperazin-1-yl]-phenyl}-2-[1-(4-methoxy-but-2-enyl)-5-methyl-3-phenyl-1H-pyrrol-2-yl]-2-oxo-acetamide] | 1 to 10 (≈ 1.73 to 17.3 µM) | 1 to 10 (≈ 1.73 to 17.3 µM) | 1 to 10 (≈ 1.73 to 17.3 µM) | < 1 | < 1 | 1 to 10 (≈ 1.73 to 17.3 µM) | > 10 | > 10 | > 10 | > 10 | > 10 | > 10 | 
COCCn1c(C)cc(-c2ccccc2)c1C(=O)C(=O)Nc1ccc(N2CCN(c3cc(C)cc(C)n3)CC2)cc1Cl [Example 26, N-{2-Chloro-4-[4-(4,6-dimethyl-pyridin-2-yl)-piperazin-1-yl]-phenyl}-2-[1-(2-methoxy-ethyl)-5-methyl-3-phenyl-1H-pyrrol-2-yl]-2-oxo-acetamide] | < 1 |  | < 1 | < 1 | < 1 | < 1 | > 10 | > 10 | > 10 | < 1 | < 1 | < 1 | 1 (a grade of 1 represents an MIC of greater than 10 mg/L)
